Results: the supplement of paper PMC10307832

Tests used:
Experiment in all cases: relative viability (nuclei count vs DMSO), 5 days (fraction); higher = more cells survive
Salubrinal + Palbociclib = compound: O=C(/C=C/c1ccccc1)NC(NC(=S)Nc1cccc2cccnc12)C(Cl)(Cl)Cl [Salubrinal] + CC(=O)c1c(C)c2cnc(Nc3ccc(N4CCNCC4)cn3)nc2n(C2CCCC2)c1=O [Palbociclib] (partner 0.5 µM)
Summary of the method: (§1)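 The day after seeding in 1536-well plates, lung cancer cell lines were treated by pin tool with a single drug, or with a fixed anchor-drug dose together with five library-drug doses (not always all listed) in √10 steps. After 5 days, a combined fix-and-stain solution (final 0.05% Triton X-100, 1% formaldehyde, 1 ug/ml Hoechst) was added. Nuclei counted on 4× images gave relative viability as treated counts over vehicle counts, reported as the median of duplicate plates.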

[1] = compound: Cc1ccc2nc(NCCN)c3ncc(C)n3c2c1 + C[C@]1(O)C[C@@H](c2nc(-c3ccc4ccc(-c5ccccc5)nc4c3)c3c(N)nccn32)C1 [Linsitinib] (partner 1 µM)
Summary of the method: as §1

Salubrinal + Dasatinib = compound: O=C(/C=C/c1ccccc1)NC(NC(=S)Nc1cccc2cccnc12)C(Cl)(Cl)Cl [Salubrinal] + Cc1nc(Nc2ncc(C(=O)Nc3c(C)cccc3Cl)s2)cc(N2CCN(CCO)CC2)n1 [Dasatinib] (partner 0.075 µM)
Summary of the method: as §1

[2] = compound: Cc1ccc2nc(NCCN)c3ncc(C)n3c2c1 + CC(C)C[C@H](NC(=O)[C@H](Cc1ccccc1)NC(=O)c1cnccn1)B(O)O [Bortezomib] (partner 0.002 µM)
Summary of the method: as §1

Row | Cell Line | relative viability (Salubrinal + Palbociclib; first compound 0.08 µM) | relative viability (Salubrinal + Palbociclib; first compound 0.253 µM) | relative viability (Salubrinal + Palbociclib; first compound 0.8 µM) | relative viability (Salubrinal + Palbociclib; first compound 2.53 µM) | relative viability (Salubrinal + Palbociclib; first compound 8 µM) | relative viability ([1]; first compound 0.04 µM) | relative viability ([1]; first compound 0.1265 µM) | relative viability ([1]; first compound 0.4 µM) | relative viability ([1]; first compound 1.265 µM) | relative viability ([1]; first compound 4 µM) | relative viability (Salubrinal + Dasatinib; first compound 0.08 µM) | relative viability (Salubrinal + Dasatinib; first compound 0.253 µM) | relative viability (Salubrinal + Dasatinib; first compound 0.8 µM) | relative viability (Salubrinal + Dasatinib; first compound 2.53 µM) | relative viability (Salubrinal + Dasatinib; first compound 8 µM) | relative viability ([2]; first compound 0.04 µM) | relative viability ([2]; first compound 0.1265 µM) | relative viability ([2]; first compound 0.4 µM) | relative viability ([2]; first compound 1.265 µM) | relative viability ([2]; first compound 4 µM)
1 | LC-2-ad | 0.499 | 0.403 | 0.586 | 0.478 | 0.403 | 0.851 | 0.871 | 0.891 | 0.864 | 0.806 | 0.543 | 0.354 | 1.11 | 0.581 | 0.448 | 1.06 | 0.978 | 1 | 1.02 | 0.81
2 | LCLC-97TM1 | 0.236 | 0.224 | 0.221 | 0.227 | 0.265 | 0.204 | 0.166 | 0.185 | 0.19 | 0.201 | 1.02 | 0.731 | 1.01 | 0.969 | 0.782 | 0.846 | 0.614 | 0.767 | 0.937 | 0.585
3 | LCLC-103H | 0.469 | 0.491 | 0.469 | 0.453 | 0.467 | 1.06 | 1.06 | 1.06 | 1.14 | 1.16 | 0.501 | 0.35 | 0.514 | 0.53 | 0.507 | 1.15 | 1.23 | 0.944 | 1.2 | 1.04
4 | LOU-NH91 | 0.6 | 0.565 | 0.521 | 0.556 | 0.569 | 0.964 | 0.865 | 0.977 | 0.942 | 0.959 | 0.565 | 0.481 | 0.672 | 0.56 | 0.499 | 0.494 | 0.587 | 0.556 | 0.529 | 0.423
5 | LU99A | 0.419 | 0.425 | 0.458 | 0.388 | 0.447 | 0.568 | 0.524 | 0.526 | 0.561 | 0.522 | 0.537 | 0.597 | 0.688 | 0.593 | 0.416 | 1.26 | 1.08 | 1.07 | 1.2 | 1
6 | LXF-289 | 0.678 | 0.478 | 0.633 | 0.578 | 0.578 | 0.981 | 0.949 | 0.967 | 0.975 | 1.01 | 0.173 | 0.241 | 0.234 | 0.236 | 0.15 | 1.01 | 0.97 | 0.987 | 0.984 | 0.994
7 | NCI-H23 | 0.635 | 0.387 | 0.598 | 0.46 | 0.501 | 0.746 | 0.489 | 0.55 | 0.611 | 0.576 | 0.881 | 0.942 | 0.696 | 0.78 | 0.925 | 1.12 | 1.03 | 1.08 | 1.02 | 0.672
8 | NCI-H322M | 0.528 | 0.445 | 0.547 | 0.483 | 0.518 | 0.889 | 0.907 | 0.857 | 0.79 | 0.899 | 0.267 | 0.24 | 0.256 | 0.265 | 0.274 | 1.29 | 1.1 | 1.24 | 1.18 | 1.27
9 | NCI-H441 | 0.222 | 0.189 | 0.313 | 0.23 | 0.201 | 0.752 | 0.509 | 0.714 | 0.563 | 0.504 | 0.781 | 0.5 | 0.756 | 0.65 | 0.47 | 0.72 | 0.463 | 0.423 | 0.533 | 0.438
10 | NCI-H460 | 0.202 | 0.158 | 0.184 | 0.145 | 0.105 | 0.759 | 0.735 | 0.751 | 0.692 | 0.642 | 0.641 | 0.56 | 0.644 | 0.565 | 0.422 | 1.05 | 1.02 | 1.08 | 1.08 | 1.01
11 | NCI-H520 | 0.25 | 0.225 | 0.23 | 0.21 | 0.271 | 0.997 | 1.15 | 0.947 | 0.884 | 0.853 | 0.252 | 0.236 | 0.292 | 0.231 | 0.292 | 0.656 | 0.544 | 0.464 | 0.568 | 0.36
12 | NCI-H647 | 0.56 | 0.37 | 0.39 | 0.431 | 0.347 | 1.34 | 1.15 | 1.22 | 1.08 | 1.18 | 0.168 | 0.203 | 0.235 | 0.243 | 0.137 | 0.943 | 0.783 | 0.999 | 0.864 | 0.707
13 | NCI-H650 | 0.346 | 0.3 | 0.355 | 0.332 | 0.298 | 0.852 | 0.828 | 0.994 | 0.911 | 0.69 | 0.425 | 0.462 | 0.462 | 0.474 | 0.413 | 0.863 | 0.673 | 0.73 | 0.859 | 0.621
14 | NCI-H661 | 0.424 | 0.436 | 0.412 | 0.412 | 0.398 | 0.644 | 0.511 | 0.449 | – | 0.543 | 0.995 | 0.921 | 0.928 | 0.871 | 0.86 | 0.909 | 0.868 | 0.595 | – | 0.651
15 | NCI-H727 | 0.672 | 0.585 | 0.656 | 0.605 | 0.691 | 0.322 | 0.352 | 0.285 | 0.308 | 0.338 | 0.311 | 0.38 | 0.341 | 0.409 | 0.375 | 0.822 | 0.806 | 0.683 | 0.732 | 0.639
16 | NCI-H838 | 0.225 | 0.244 | 0.218 | 0.247 | 0.214 | 1.01 | 0.956 | 0.964 | 0.995 | 0.97 | 0.304 | 0.288 | 0.318 | 0.262 | 0.266 | 0.878 | 0.9 | 0.615 | 0.631 | 0.739
17 | NCI-H1355 | 0.423 | 0.472 | 0.412 | 0.402 | 0.364 | 0.811 | 0.825 | 0.814 | 0.771 | 0.719 | 0.764 | 0.569 | 0.806 | 0.685 | 0.603 | 1.25 | 1.19 | 1.02 | 1.14 | 1.06
